Test results from US12030908B2, “Antimicrobial compounds, compositions, and uses thereof” (Lakewood Amedex, Inc., priority 2017, dated 2024).

Legend:
[1] = tested on: Escherichia coli (strain CFT073, TPPS 1041); assay: Initial urinary tract infection model in BALB/c mice, transurethral treatment (Example 9); format: in vivo; conditions: pH 3.5, 1025 mg/kg transurethral
Description: Female BALB/c mice (20-22 g) ordered from Envigo are acclimated to housing conditions and handled in accordance with Animal Use Protocol (AUP) number TP-08. Animals are fed irradiated Teklad Global 29 18 Rodent Diet and water ad libitum. Mice are housed 6/cage in static cages with irradiated ⅛″ Teklad corn cobbedding 7902 inside bioBubble® clean rooms that provide H.E.P.A filtered air into the bubble environment at 100 complete air changes per hour. The environment is controlled to a temperature range of 74°±4° F. and a humidity range of 30-70%. All procedures carried out in this experiment are conducted in compliance with the laws, regulations, and guidelines of the National Institutes of Health and with the approval of the TransPharm Preclinical Solutions Animal Care and Use Committee.
A clinical isolate of Escherichia coli (strain CFT073, TPPS 1041) are procured from the University of Michigan.
The organism is grown overnight at 37° C. in ambient atmosphere on trypticase soy agar plates supplemented with 5% sheep blood cells. The culture is aseptically swabbed and transferred to tubes of trypticase soy broth. The optical density is determined at 600 nm. The culture is diluted to provide an inoculum of approximately 7.5 log10 CFU per mouse in a volume of 30 μL. Instillation of the bacterial challenge constituted time 0 hour for the study. Inoculum counts are estimated before inoculation by optical density and confirmed after inoculation by dilution and back counts.
One hour prior to bacterial challenge, water is removed from animal cages. […]
The primary endpoint used to assess progress of the infection is mean bacterial burden per gram of urinary bladder tissue. […] Colony forming units (CFU) are enumerated and the total bacterial burden per gram of urinary bladder tissue homogenate is calculated.
The geometric mean CFU, along with standard error of the mean (SEM), are calculated using Microsoft Excel and bar charts are prepared for the data using GraphPad Prism v. […]

[2] = tested on: E. coli ATCC25922; assay: Urinary tract infection model in rats, transurethral treatment (Example 11); format: in vivo, Sprague-Dawley rats; conditions: 60 min
Procedure: Female Sprague-Dawley rats (n=6/group) are intraurethrally infected with the predetermined inoculum size of E. coli. At the specified time following infection with (depending on the in vivo growth curve), the animals are anaesthetized (ketamine/xylazine) and treated by transurethral administration with neutral saline (group 1), saline pH 3.5 adjusted with phosphoric acid (group 2), test compound Nu-8 pH 3.5 at 103 and 207 mg/kg (groups 3 and 4, respectively). When adjusting pH, the volume of phosphoric acid added are monitored and the final concentration of the pH adjusted dose solution are subsequently determined. The goal is to have the final concentration after pH adjustment within 10% of the desired dose so the final concentration after pH adjustment are reported. Volume of administration will be 300 μL. TABLE 9 (Animal Challenge and Treatment Schedule) summarizes the study groups.
Two hours prior to each infection animals are water deprived. Each animal is infected twice with 24 hrs difference by transurethral administration of 300 μL of bacterial suspension under light ketamine and xylazine anaesthesia. Prior to infection, urine is evacuated by digital pressure, cannula is gently inserted into the bladder via urethra, and 300 μL of bacterial suspension is inserted into the bladder. […]

With CCCCOP(=O)(O)OC[C@H]1O[C@@H](n2ccc(N)nc2=O)C[C@@H]1OP(=O)(O)OCCCC [Nu-8, sodium ((2R,3S,5R)-5-(4-amino-2-oxopyrimidin-1(2H)-yl)-3-((butoxyoxidophosphor-yl)oxy)tetrahydrofuran-2-yl)methyl butyl phosphate] the “mean bladder CFU burden” value ([1]; 20 minutes post-treatment) was 2.9 log10, the “mean bladder CFU burden” value ([1]; 60 minutes post-treatment) was 3.7 log10 CFU and the “mean CFU log 10 per mL of bladder tissue (tissue plus urine)” value ([2]; pH 3.5, 103 mg/kg transurethral) was 5.53 Log 10 CFUs/mL bladder tissue. For the same compound, the “mean CFU log 10 per mL of bladder tissue (tissue plus urine)” value ([2]; pH 3.5, 207 mg/kg transurethral) was 4.60 Log 10 CFUs/mL bladder tissue.
